pEC50, pIC50: −log10 of the molar value. Values after ≈ are worked out from the molar mass of the structure shown. Each block holds one compound with its values, some of them ahead of it.
Tests used:
MCF7 [1] = experiment: Antiproliferative activity against human MCF7 cells assessed as inhibition of cell growth incubated upto 120 hrs by MTS assay; assay type: functional, cell-based; conditions: MCF7, 120 h
MDA-MB-231 = experiment: Antiproliferative activity against human MDA-MB-231 cells assessed as inhibition of cell growth incubated upto 120 hrs by MTS assay; assay type: functional, cell-based; conditions: MDA-MB-231, 120 h
HCC1806 = experiment: Antiproliferative activity against human HCC1806 cells assessed as inhibition of cell growth incubated upto 120 hrs by MTS assay; assay type: functional, cell-based; conditions: HCC1806, 120 h
Hs-578T = experiment: Antiproliferative activity against human Hs-578T cells assessed as inhibition of cell growth incubated upto 120 hrs by MTS assay; assay type: functional, cell-based
HeLa [2] = experiment: Antiproliferative activity against human HeLa cells assessed as inhibition of cell growth incubated for 48 hrs by MTT reagent based microplate reader assay; assay type: functional
HCT-116 = experiment: Antiproliferative activity against human HCT-116 cells assessed as inhibition of cell growth incubated for 48 hrs by MTT reagent based microplate reader assay; assay type: functional; conditions: HCT-116, 48 h
PANC-1 = experiment: Antiproliferative activity against human PANC-1 cells assessed as inhibition of cell growth incubated for 48 hrs by MTT reagent based microplate reader assay; assay type: functional; conditions: PANC-1, 48 h
HepG2 [3] = experiment: Antiproliferative activity against human HepG2 cells assessed as inhibition of cell growth incubated for 48 hrs by MTT reagent based microplate reader assay; assay type: functional; conditions: HepG2, 48 h
HT-29 = experiment: Antiproliferative activity against human HT-29 cells assessed as inhibition of cell growth incubated for 48 hrs by MTT reagent based microplate reader assay; assay type: functional; conditions: HT-29, 48 h
MCF7 [4] = experiment: Antiproliferative activity against human MCF7 cells assessed as inhibition of cell growth incubated for 48 hrs by MTT reagent based microplate reader assay; assay type: functional; conditions: MCF7, 48 h
A549 [5] = experiment: Antiproliferative activity against human A549 cells assessed as inhibition of cell growth incubated for 48 hrs by MTT reagent based microplate reader assay; assay type: functional; conditions: A549, 48 h
DU-145 [6] = experiment: Antiproliferative activity against human DU-145 cells assessed as inhibition of cell growth incubated for 48 hrs by MTT reagent based microplate reader assay; assay type: functional; conditions: DU-145, 48 h
PC-3 = experiment: Antiproliferative activity against human PC-3 cells assessed as inhibition of cell growth incubated for 48 hrs by MTT reagent based microplate reader assay; assay type: functional; conditions: PC-3, 48 h
Huh-7 [7] = experiment: Cytotoxicity against human Huh-7 cells assessed as inhibition of cell growth incubated for 24 hrs by MTT reagent based microplate reader assay; assay type: functional; conditions: Huh-7, 24 h
Hep 3B2 [8] = experiment: Cytotoxicity against human Hep3B cells assessed as inhibition of cell growth incubated for 24 hrs by MTT reagent based microplate reader assay; assay type: functional
HepG2 [9] = experiment: Cytotoxicity against human HepG2 cells assessed as inhibition of cell growth incubated for 24 hrs by MTT reagent based microplate reader assay; assay type: functional; conditions: HepG2, 24 h
SW1353 = experiment: Antiproliferative activity against human SW1353 cells assessed as inhibition of cell growth incubated for 24 hrs by CellTiter-Glo luminescent assay; assay type: functional, cell-based; conditions: SW1353, 24 h
[10] = Antiproliferative activity against human CAL-78 cells assessed as inhibition of cell growth incubated for 24 hrs by CellTiter-Glo luminescent assay; assay type: functional, cell-based; conditions: CAL-78, 24 h
SCC-25 = experiment: Cytotoxicity against human SCC-25 cells incubated for 48 hrs by MTT reagent based spectrophotometric analysis; assay type: functional, cell-based; conditions: SCC-25, 48 h
T-24 = experiment: Cytotoxicity against human T24 cells assessed as reduction in cell growth incubated for 48 hrs by MTT assay; assay type: functional, cell-based; conditions: T-24, 48 h
MCF7 [11] = experiment: Cytotoxicity against human MCF7 cells assessed as reduction in cell growth incubated for 48 hrs by MTT assay; assay type: functional, cell-based; conditions: MCF7, 48 h
MCF7 [12] = experiment: Cytotoxicity against human MCF7 cells incubated for 24 hrs by MTT assay; assay type: functional, cell-based; conditions: MCF7, 24 h
DU-145 [13] = experiment: Cytotoxicity against human DU-145 cells assessed as reduction in cell growth incubated for 48 hrs by MTT assay; assay type: functional, cell-based; conditions: DU-145, 48 h
RPMI-8226 = experiment: Cytotoxicity against human RPMI-8226 cells assessed as reduction in cell viability incubated for 72 hrs by MTT assay; assay type: functional, cell-based; conditions: RPMI-8226, 72 h
MCF7 [14] = experiment: Cytotoxicity against human MCF7 cells assessed as reduction in cell viability incubated for 72 hrs by MTT assay; assay type: functional, cell-based; conditions: MCF7, 72 h
HepG2 [15] = experiment: Cytotoxicity against human HepG2 cells assessed as reduction in cell viability incubated for 72 hrs by MTT assay; assay type: functional, cell-based; conditions: HepG2, 72 h
U-87 MG = experiment: Cytotoxicity against human U87 cells assessed as inhibition of cell growth incubated for 72 hrs by MTT assay; assay type: functional, cell-based, U-87MG ATCC
GBM = experiment: Cytotoxicity against human GBM cells assessed as inhibition of cell growth incubated for 72 hrs by MTT assay; assay type: functional, cell-based
ADR5000 cell line = experiment: Antiproliferative activity against human ADR5000 cell line assessed as inhibition of cell growth incubated for 72 hrs by resazurin assay; assay type: functional, cell-based; conditions: ADR5000, 72 h
CCRF-CEM = experiment: Antiproliferative activity against human CCRF-CEM cells assessed as inhibition of cell growth incubated for 72 hrs by resazurin assay; assay type: functional, cell-based
MKN-45 = experiment: Antiproliferative activity against human MKN-45 cells assessed as inhibition of cell growth incubated for 24 hrs by MTT reagent based microplate reader assay; assay type: functional; conditions: MKN-45, 24 h
[16] = Antiproliferative activity against human YCC-6 cells assessed as inhibition of cell growth incubated for 24 hrs by MTT reagent based microplate reader assay; assay type: functional; conditions: YCC-6, 24 h
MKN-28 = experiment: Antiproliferative activity against human MKN-28 cells assessed as inhibition of cell growth incubated for 24 hrs by MTT reagent based microplate reader assay; assay type: functional; conditions: MKN-28, 24 h
[17] = Antiproliferative activity against human YCC-16 cells assessed as inhibition of cell growth incubated for 24 hrs by MTT reagent based microplate reader assay; assay type: functional; conditions: YCC-16, 24 h
HepG2 [18] = experiment: Antiproliferative activity against human HepG2 cells assessed as inhibition of cell growth incubated for 24 hrs by MTT reagent based microplate reader assay; assay type: functional; conditions: HepG2, 24 h
NCI-N87 = experiment: Antiproliferative activity against human NCI-N87 cells assessed as inhibition of cell growth incubated for 24 hrs by MTT reagent based microplate reader assay; assay type: functional; conditions: NCI-N87, 24 h
[19] = Antiproliferative activity against human SNU-216 cells assessed as inhibition of cell growth incubated for 24 hrs by MTT reagent based microplate reader assay; assay type: functional; conditions: SNU-216, 24 h
[20] = Antiproliferative activity against human YCC-1 cells assessed as inhibition of cell growth incubated for 24 hrs by MTT reagent based microplate reader assay; assay type: functional; conditions: YCC-1, 24 h
Huh-7 [21] = experiment: Antiproliferative activity against human Huh-7 cells assessed as inhibition of cell growth incubated for 24 hrs by MTT reagent based microplate reader assay; assay type: functional; conditions: Huh-7, 24 h
Hep 3B2 [22] = experiment: Antiproliferative activity against human Hep3B cells assessed as inhibition of cell growth incubated for 24 hrs by MTT reagent based microplate reader assay; assay type: functional
AGS = experiment: Antiproliferative activity against human AGS cells assessed as inhibition of cell growth incubated for 24 hrs by MTT reagent based microplate reader assay; assay type: functional
[23] = Antiproliferative activity against human SNU-484 cells assessed as inhibition of cell growth incubated for 24 hrs by MTT reagent based microplate reader assay; assay type: functional; conditions: SNU-484, 24 h
MCF7 [24] = experiment: Cytotoxicity against human MCF7 cells assessed as reduction in cell viability incubated for 24 hrs by MTT assay; assay type: functional, cell-based; conditions: MCF7, 24 h
HeLa [25] = experiment: Cytotoxicity against human HeLa cells assessed as reduction in cell viability incubated for 24 hrs by MTT assay; assay type: functional, cell-based
A549 [26] = experiment: Cytotoxicity against human A549 cells assessed as reduction in cell viability incubated for 24 hrs by MTT assay; assay type: functional, cell-based; conditions: A549, 24 h
A549 [27] = experiment: Antiproliferative activity against human A549 cells assessed as inhibition of cell growth by MTT assay; assay type: functional, cell-based

Compound: CCCCCCCC/C=C\CCCCCCCC(=O)Oc1cccc2c1C(=O)C=C(C)C2=O
pIC50 (HeLa [2]): 4.68
pIC50 (HCT-116): 5.19
pIC50 (PANC-1): 4.79
pIC50 (HepG2 [3]): 5.13
pIC50 (HT-29): 5.54
pIC50 (MCF7 [4]): 5.14
pIC50 (A549 [5]): 4.81
pIC50 (DU-145 [6]): 5.06
pIC50 (PC-3): 5.00

Compound: CCCS(=O)(=O)C12OC1C(=O)c1c(OC)ccc(OC)c1C2=O (stereo unspecified)
pIC50 (Huh-7 [7]): 5.11
pIC50 (Hep 3B2 [8]): 5.41
pIC50 (HepG2 [9]): 5.28

Compound: CC(C)/C=C/C1=C(OCc2cn(-c3cccc(Cl)c3)nn2)C(=O)c2ccccc2C1=O
pIC50 (SCC-25): 5.01

Compound: O=C(C1=C(Nc2ccccc2)C(=O)c2ccccc2C1=O)c1ccco1
pIC50 (T-24): 4.93
pIC50 (MCF7 [11]): 5.33
pEC50 (MCF7 [12]): 4.82
pIC50 (DU-145 [13]): 5.26

Compound: CCOC(=O)CCCCCNC1=C(F)C(=O)c2c(F)c(F)c(F)c(F)c2C1=O
pIC50 (RPMI-8226): 5.55
pIC50 (MCF7 [14]): 5.85
pIC50 (HepG2 [15]): 5.68

Compound: CC(C)=CCC1=C(NCCCCN(CCCN)Cc2ccccc2)C(=O)c2ccccc2C1=O
pIC50 (U-87 MG): 5.37
pIC50 (GBM): 5.18

Compound: O=C(Nc1ccc(S(=O)(=O)c2ccc(NC3=C(Sc4ccccc4)C(=O)c4ccccc4C3=O)cc2)cc1)c1cc(Cl)cc(Cl)c1
pIC50 (MCF7 [24]): 7.30
pIC50 (HeLa [25]): 5.93
pIC50 (A549 [26]): 5.70

Compound: CC(=O)NCC1=C(Nc2ccc(O)c(C)c2)C(=O)c2ccccc2C1=O
IC50 (A549 [27]): 3 mg/L (≈ 8.56 µM)

The next lines start with results.

pIC50 (MCF7 [1]): 5.26
pIC50 (MDA-MB-231): 5.48
pIC50 (HCC1806): 5.57
Compound: COc1ccc(OC)c2c1C(=O)C(Cl)=C(Cl)C2=O
pIC50 (Hs-578T): 5.79

pIC50 (SW1353): 5.92
Compound: CC(C)=CC[C@@H](OC(=O)C1CC1)C1=CC(=O)c2c(O)ccc(O)c2C1=O
pIC50 [10]: 5.54

pIC50 (CCRF-CEM): 5.72
Compound: CCOc1ccc(NC(=O)C2=C(SC(C)(C)C)C(=O)c3ccccc3C2=O)cc1
pIC50 (ADR5000 cell line): 5.70

pIC50 (MKN-45): 6.09
pIC50 (MKN-28): 5.92
pIC50 (HepG2 [18]): 6.06
pIC50 (Huh-7 [21]): 5.55
pIC50 (AGS): 6.38
Compound: COc1ccc(OC)c2c1C(=O)C=C(Sc1ccc3ccccc3c1)C2=O
pIC50 [16]: 6.10
pIC50 [17]: 5.80
pIC50 (NCI-N87): 5.82
pIC50 [19]: 6.05
pIC50 [20]: 5.89
pIC50 (Hep 3B2 [22]): 6.05
pIC50 [23]: 5.84

Source: ChEMBL document CHEMBL5512632, “Unlocking the potential of 1,4-naphthoquinones: A comprehensive review of their anticancer properties” (Eur J Med Chem, 2024)
